# Reference: patent US5389687A, “Ring-substituted 2-amino-1,2,3,4-tetra-hydronaphthalenes” (Eli Lilly and Company, priority 1991, dated 1995)
# pIC50: −log10 of the molar value. Values joined by “and” are separate entries in the source; they are usually repeats but may differ in a detail not shown here. Identical values can stand only once. Like-named read-outs stand apart in the source and are kept apart here.
# Key:
# 5HT1a receptors = target: T1, 5HT1a receptors (Rattus norvegicus, UniProt P19327); assay: Binding at 5HT1a receptors in vitro (inhibition of 3H-8-OH-DPAT binding to synaptosomal membranes from cerebral cortex); parameters: species or system Male Sprague-Dawley rats; settings: 0.4 nM 3H-8-OH-DPAT, 37° C., 10 min, pH 7.4, several values in a cell are separate determinations
# T1 construct: synaptosomal membranes isolated from cerebral cortex; from tissue; host or cells: rat cerebral cortex, crude synaptosomal membranes (Male Sprague-Dawley rats from Harlan Industries)
# T1 sequence (P19327 1-422): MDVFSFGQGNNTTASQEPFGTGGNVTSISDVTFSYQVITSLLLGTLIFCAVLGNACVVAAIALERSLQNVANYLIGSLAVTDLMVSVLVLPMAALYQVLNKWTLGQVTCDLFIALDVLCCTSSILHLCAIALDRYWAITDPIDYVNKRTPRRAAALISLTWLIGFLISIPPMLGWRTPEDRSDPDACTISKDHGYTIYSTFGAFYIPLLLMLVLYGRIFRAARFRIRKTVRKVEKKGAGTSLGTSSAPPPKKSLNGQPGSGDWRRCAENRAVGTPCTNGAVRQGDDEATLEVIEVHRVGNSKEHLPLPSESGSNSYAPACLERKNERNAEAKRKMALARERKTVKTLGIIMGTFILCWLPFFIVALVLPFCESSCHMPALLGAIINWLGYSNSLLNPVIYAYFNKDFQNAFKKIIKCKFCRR
# Procedure: This general procedure is set forth in Wong et al., J. Neural Transm. 71:207-218 (1988).
# Male Sprague-Dawley rats (110-150 g) from Harlan Industries (Cumberland, Ind.) were fed a Purina Chow ad libitum for at least 3 days before being used in the studies. Rats were killed by decapitation. The brains were rapidly removed, and the cerebral cortices were dissected out at 4° C.
# Brain tissues were homogenized in 0.32 M sucrose. After centrifugation at 1000×g for 10 min and then at 17000×g for 20 min, a crude synaptosomal fraction was sedimented. The pellet was suspended in 100 vol of 50 mM Tris-HCl, pH 7.4, incubated at 37° C. for 10 min, and centrifuged at 50000×g for 10 min. The process was repeated and the final pellet was suspended in ice-chilled 50 mM Tris-HCl, pH 7.4. By the radio-ligand binding method, sites specifically labeled by tritiated 8-hydroxy-2-dipropylamino-1,2,3,4-tetrahydronaphthalene ([…]) have been identified as 5HT-1a receptors.
# Binding of (^3 H-8-OH-DPAT) was performed according to the previously described method [Wong et al., J. Neural Transm. 64:251-269 (1985)]. Briefly, synaptosomal membranes isolated from cerebral cortex were incubated at 37° C. for 10 min. in 2 ml of 50 mM Tris-HCl, pH 7.4; 10 μM pargyline; 0.6 mM ascorbic acid; and 0.4 nM […]. Binding was terminated by filtering samples under reduced pressure through glass fiber (GFB) filters. The filters were washed twice with 5 ml of ice cold buffer and placed in scintillation vials with 10 ml of PCS (Amersham/Searle) scintillation fluid. Radioactivity was measured with a liquid scintillation spectrometer. Unlabeled 8-OH-DPAT at 10 μM was also included in separate samples to establish non-specific binding. Specific binding of ^3 H-8-OH-DPAT is defined as the difference of radioactivity bound in the absence and in the presence of 10 μM unlabeled 8-OH-DPAT.
# [1] = test system: conscious spontaneous hypertensive rats (SHR); assay: Effect on blood pressure after i.v. administration to conscious SHR; type: in vivo; settings: for ED25: Rattus norvegicus, iv, read-out: Blood Pressure ED25 (i.v. dose required to decrease pressure 25%)
# Procedure: (§1) The compounds of this invention are also effective in reducing blood pressure. The blood pressure lowering effect of the compounds of this invention was determined in conscious spontaneous hypertensive rats (SHR; 325-425 g). The rats were anesthetized with halothane (2% in nitrous oxide and oxygen) and were implanted with femoral arterial and venous catheters. The tips of arterial and venous catheters-were positioned in the abdominal aorta below the renal arteries and lower abdominal vena cava, respectively. The catheters were routed subcutaneously to an exit point at the base of the skull and then through a small leather harness fastened around the forequarters of each animal. The animals were allowed a 3- to 4-day recovery period after surgery. On the day before an experiment, each rat was conditioned to the experimental surroundings for 6 hours. On the day of the experiment, the harness on the back of each animal was connected to a spring tether through which arterial and venous extension tubing was routed. The other end of the tubing was connected to a water tight swivel. This system permitted direct recording of blood pressure in conscious free moving animals. Mean arterial blood pressure was measured via a Statham strain gauge transducer (P23DB, Statham Instruments, Oxnard, Calif.) and recorded on a multichannel oscillograph (Beckman Model R611, Beckman Instruments, Palo Alto, Calif.). A minimum 30-minute equilibration period was observed prior to the experimental protocol during which time the animals preened and blood pressure was quite labile. Afterward, the animals appeared to sleep and pressure was stable. Following a control blood pressure measurement, rats were dosed with the compound or vehicle i.v., and pressure was monitored at various time intervals thereafter.
# (§2) ^1 Standard protocol recorded the blood pressure and heart rate
# (§3) responses after 0.3, 1.0 and 3.0 mg/kg i.v. Dose response curves were
# (§4) plotted using the % change in pressure from pretreatment control values a
# (§5) 15 and 30 minutes after treatment.
# (§6) Corr = correlation coefficient for the linear relationship between the lo
# (§7) dose(s) and % change (y) in pressure. Values of 1.0 = perfect correlation
# (§8) Pos = Positive slope of dose response
# ED25 = i.v. dose required to decrease pressure 25%
# [2] = test system: conscious spontaneous hypertensive rats (SHR); assay: Effect on heart rate after i.v. administration to conscious SHR; type: in vivo; settings: for ED15: Rattus norvegicus, iv, read-out: Heart Rate ED15
# Procedure: as §1, §2, §3, §4, §5, §6, §7, §8
# HR Index = ED15 for Heart Rate divided by ED25 for Blood
# [3] = 0.25 h, 15 min. after treatment, i.v., conscious SHR
# [4] = 0.5 h, 30 min. after treatment, i.v., conscious SHR
# [5] = 15 min. after treatment, i.v., conscious SHR
# [6] = 30 min. after treatment, i.v., conscious SHR
Structure (SMILES),pIC50 (5HT1a receptors; IC50 5HT1a),"ED25 [1, 3]","ED25 [1, 4]","HR Index (ED15 for Heart Rate divided by ED25 for Blood Pressure) [2, 5]","HR Index (ED15 for Heart Rate divided by ED25 for Blood Pressure) [2, 6]","ED15 [2, 3]","ED15 [2, 4]",pIC50 (5HT1a receptors; read-out: IC50 5HT1a),other results
"CCCN(CCC)C1CCc2cccc(Cl)c2C1 (centres unmarked) [Example 1, 2-Di-n-propylamino-8-chloro-1,2,3,4-tetrahydronaphthalene]",7.74,3.1 mg/kg,13 mg/kg,8.96,0.22,27.8 mg/kg,2.8 mg/kg,,
"CCN(CC)C1CCc2cccc(Cl)c2C1 (centres unmarked) [Example 2, 2-Diethylamino-8-chloro-1,2,3,4-tetrahydronaphthalene]",7.32 and 7.42,,,,1.00,,,,ED25 ([1]; 0.5 h): 1.5 mg/kg; ED15 ([2]; 0.5 h): 1.5 mg/kg
"C=CCN(CC=C)C1CCc2cccc(Cl)c2C1 (centres unmarked) [Example 3, 2-Diallylamino-8-chloro-1,2,3,4-tetrahydronaphthalene]",7.34,,,,,,,,
"CCCCN(CCCC)C1CCc2cccc(Cl)c2C1 (centres unmarked) [Example 4, 2-Di-n-butylamino-8-chloro-1,2,3,4-tetrahydronaphthalene]",,,,,,,,6.11 and 6.50,
"CCCN(CCC)C1CCc2cccc(Br)c2C1 (centres unmarked) [Example 5, 2-Di-n-propylamino-8-bromo-1,2,3,4-tetrahydronaphthalene]",7.64 and 7.82,6.1 mg/kg,5.9 mg/kg,0.06,0.27,1.6 mg/kg,1.6 mg/kg,,
"CCCN(CCC)C1CCc2cccc(F)c2C1 (centres unmarked) [Example 6, 2-Di-n-propylamino-8-fluoro-1,2,3,4-tetrahydronaphthalene]",,4.5 mg/kg,,,,,8 mg/kg,6.55,"Heart Rate ED15 [2, 5]: Pos"
"CCCN(CCC)C1CCc2cccc(C(=O)OC)c2C1 (centres unmarked) [Example 7, 2-Di-n-propylamino-8-methoxycarbonyl-1,2,3,4-tetrahydronaphthalene]",8.85 and 8.74 and 8.62,,5.3 mg/kg,,0.21,1.4 mg/kg,1.1 mg/kg,,
"CCCN(CCC)C1CCc2cccc(C#N)c2C1 (centres unmarked) [Example 8, 2-Di-n-propylamino-8-cyano-1,2,3,4-tetrahydronaphthalene]",7.26,5.1 mg/kg,4.1 mg/kg,0.71,0.68,3.6 mg/kg,2.8 mg/kg,,
"CCCNC1CCc2cccc(Cl)c2C1 (centres unmarked) [Example 10, 2-n-Propylamino-8-chloro-1,2,3,4-tetrahydronaphthalene]",,2.5 mg/kg,4.5 mg/kg,0.48,0.47,1.2 mg/kg,2.1 mg/kg,6.70,
"CN(C)C1CCc2cccc(Cl)c2C1 (centres unmarked) [Example 11, 2-Dimethylamino-8-chloro-1,2,3,4-tetrahydronaphthalene]",,1.1 mg/kg,1.8 mg/kg,1.0,3.00,1.1 mg/kg,5.4 mg/kg,6.24 and 6.57,
"CNC1CCc2cccc(Cl)c2C1 (centres unmarked) [Example 12, 2-Methylamino-8-chloro-1,2,3,4-tetrahydronaphthalene]",,1.4 mg/kg,1.8 mg/kg,,0.83,,1.5 mg/kg,,
"CC(C)N(C)C1CCc2cccc(Cl)c2C1 (centres unmarked) [Example 14, 2-Methylisopropylamino-8-chloro-1,2,3,4-tetrahydronaphthalene]",,2.9 mg/kg,,1.31,,3.8 mg/kg,,,
"CCCN(C)C1CCc2cccc(Cl)c2C1 (centres unmarked) [Example 15, 2-Methylpropylamino-8-chloro-1,2,3,4-tetrahydronaphthalene]",,1.6 mg/kg,3.8 mg/kg,,,,,6.30,
"CCCN(CCC)C1CCc2cccc(C=O)c2C1 (centres unmarked) [Example 17, 2-Di-n-propylamino-8-formyl-1,2,3,4-tetrahydronaphthalene]",7.76,,,,,,,,
"CCCNC1CCc2cccc(NC(C)=O)c2C1 (centres unmarked) [Example 18, 2-Propylamino-8-acetamido-1,2,3,4-tetrahydronaphthalene]",,,,,,3.8 mg/kg,1.2 mg/kg,,
"CN(C)C1CCc2cccc(C(N)=O)c2C1 (centres unmarked) [Example 19, 2-Dimethylamino-8-carboxamido-1,2,3,4-tetrahydronaphthalene]",,10.9 mg/kg,1030 mg/kg,,,,,,"Heart Rate ED15 [2, 5]: Pos; Heart Rate ED15 [2, 6]: Pos"
"CCN(C)C1CCc2cccc(C(N)=O)c2C1 (centres unmarked) [Example 20, 2-Methylethylamino-8-carboxamido-1,2,3,4-tetrahydronaphthalene]",,,,,,,,6.40,
"CCCN(CCC)C1CCc2cccc(CO)c2C1 (centres unmarked) [Example 21, 2-Di-n-propylamino-8-hydroxymethyl-1,2,3,4-tetrahydronaphthalene]",7.26,4.2 mg/kg,,,,,,,"convulsion ([1]; 3.0 mg/kg i.v., conscious SHR): caused convulsion"
